Results reported in US6521650B1, “Amines as pharmaceutical agents” (Pfizer, Inc., priority 1997, dated 2003).

Columns and labels:
[1] = test system: DBA2; assay: DBA2 % Protection; assay type: in vivo

SMILES	melting point [°C]	DBA2 % Protection 1 Hr [1] [%]	DBA2 % Protection 2 Hr [1] [%]
CC(C)CC(CN)Cc1noc(=S)[nH]1.Cl (centres unmarked)	183 to 185		
CC(C)CC(CN)Cc1noc(=S)[nH]1 (centres unmarked)		0	0
CC(C)CC(CN)CP(=O)(O)O (centres unmarked) [PO3H2, (2-Aminomethyl-4-methyl-pentyl)-phosphonic acid]		0	0
